Our source for the Activity and growth values is ChEMBL document CHEMBL3046898, “Synthesis and characterization of flurbiprofen hydrazide derivatives as potential anti-HCV, anticancer and antimicrobial agents” (2013).

The subject of one assay is Klebsiella aerogenes. The experiment in a line: Antibacterial activity against Enterobacter aerogenes at 6.25 to 200 ug/ml after 24 hrs by microwell dilution method. It counts as functional, organism-based.
The next assay relates to Malme-3M. Put plainly: Cytotoxicity against human MALME-3M assessed as cell growth at 10 uM after 48 hrs by SRB assay. It counts as functional. Particulars: read-out: Activity.
In the next assay the test system is Proteus vulgaris. Put plainly: Antibacterial activity against Proteus vulgaris at 10 mg/ml after 24 hrs by disc diffusion method. The format is functional, organism-based. In general terms: In agar diffusion tests the substance spreads into inoculated agar from a disc or well.
For the next assay, the system named is Escherichia coli. The experiment in a line: Antibacterial activity against Escherichia coli at 10 mg/ml after 24 hrs by disc diffusion method. It counts as functional, organism-based.
In the next assay the test system is Pseudomonas aeruginosa. The experiment in a line: Antibacterial activity against Pseudomonas aeruginosa at 10 mg/ml after 24 hrs by disc diffusion method. The format is functional, organism-based.
The subject of the next assay is SNB-19. The experiment in a line: Cytotoxicity against human SNB19 assessed as cell growth at 10 uM after 48 hrs by SRB assay. It counts as functional. Particulars: SNB-19, 48 h, read-out: Activity.
The next assay relates to Salmonella paratyphi. The experiment in a line: Antibacterial activity against Salmonella paratyphi at 6.25 to 200 ug/ml after 24 hrs by microwell dilution method. The format is functional, organism-based. Conditions: Salmonella enterica subsp. enterica serovar Paratyphi A.
Another assay relates to MCF7. Put plainly: Cytotoxicity against human MCF7 assessed as cell growth at 10 uM after 48 hrs by SRB assay. The format is functional. Particulars: MCF7, 48 h, read-out: Activity. A general note: The SRB assay estimates cell density from bound dye.
The subject of a further assay is SNB-75. Put plainly: Cytotoxicity against human SNB75 assessed as cell growth at 10 uM after 48 hrs by SRB assay. The format is functional. Conditions: SNB-75, 48 h, read-out: Activity.

Calls of active or inactive are those of the source. The calls are words filed in the database; no cut-off is given here.

With `CC(C(=O)NN1C(=O)CSC1c1ccc(C(F)(F)F)cc1)c1ccc(-c2ccccc2)c(F)c1` (centres undefined), the result in the assay on Klebsiella aerogenes, with Proteus vulgaris, with Escherichia coli, in the assay with Pseudomonas aeruginosa and with Salmonella paratyphi was inactive. Besides, the growth at 10 µM in the assay on Malme-3M was 63%; in the assay with SNB-19, 54.7%; with MCF7, 43%; in the assay with SNB-75, 43%.
